Each block holds one molecule with its values, some of them ahead of it.
Experiments:
[1] = Liquid formulations with Vitamin E TPGS, ethanol and water (HPLC assay, visual observation); assay type: physicochemical; details: ethanol less than two percent, water
[2] = tested on: human coronary artery smooth muscle cells; test: Anti-proliferative activity in non-synchronized cultured human coronary artery smooth muscle cells stimulated with two percent fetal bovine serum; assay type: cell-based
Source text: The multiple curves represent various concentrations of mycophenolic acid ranging from zero to one thousand nanomolar concentrations.
FIG. 58 illustrates, in graphical format, the anti-proliferative activity of cladribine in non-synchronized cultured human coronary artery smooth muscle cells stimulated with two percent fetal bovine serum.
The multiple curves represent various concentrations of cladribine ranging from zero to nine hundred nanomolar concentrations.

[3] = In vivo release kinetics from polymeric stent coatings in porcine pharmacokinetics studies
cell viability = test: Cell viability assay; assay type: cell-based
Source text: (§1) The multiple curves represent various concentrations of topotecan ranging from zero to three hundred nanomolar concentrations.
(§2) The multiple curves represent various concentrations of etoposide ranging from zero to eight hundred nanomolar concentrations.

[4] = tested on: human coronary artery smooth muscle cells; test: Anti-proliferative activity in synchronized cultured human coronary artery smooth muscle cells stimulated with two percent fetal bovine serum; assay type: cell-based
Source text: as §1, §2
The multiple curves represent various concentrations of Panzem® ranging from zero to 100 micromolar concentrations.

[5] = tested on: human smooth muscle cells; test: PDGF AB-stimulated proliferation of human smooth muscle cells (cell count, day six); assay type: cell-based; details: from the IC50 values
Description: To assess the ability of cladribine to prevent cell proliferation, human smooth muscle or endothelial cells (Clonetics, Walkersville, Md.) were seeded at a density of 2000 cells/cm^2 (approximately 3600 cells/well) into each well of 12-well plates and cultured with 1.5 ml of growth medium containing five percent fetal calf serum (FCS). After twenty-four hours, the growth medium was changed and fresh medium containing 10 ng/ml platelet-derived growth factor AB (PDGF AB; LIFE Technologies), as well as various concentrations of cladribine (0.001-10,000 nM) were added with triplicate wells. Medium was replaced with fresh cladribine-containing medium after three days. On day six, cells were detached by trypsinization to yield a cell suspension, lightly centrifuged to pellet and then counted manually using a Neubauer hemocytometer system. Cell viability was assessed by trypan blue exclusion.

tumor cell lines = details: cited from earlier work
[6] = tested on: human coronary artery smooth muscle cell proliferation; test: In vitro cell culture study of coronary artery smooth muscle cell proliferation; assay type: cell-based
Source text: FIG. 51 is a graph of the inhibition of coronary artery smooth muscle cells by trichostatin A in a cell culture study.

[7] = tested on: human coronary artery smooth muscle cell survival; test: MTS cytotoxicity assay; assay type: cell-based; details: concentrations up to 30,000.00 nanomolar (tested from 6.6 nanomolar)
Source text: Typically, a control is utilized to determine baseline toxicity.

- concentration of CCI-779 in the final solution (HPLC assay) [1]: 15 mg/mi
SMILES: CO[C@H]1C[C@@H]2CC[C@@H](C)[C@@](O)(O2)C(=O)C(=O)N2CCCC[C@H]2C(=O)O[C@H]([C@H](C)C[C@@H]2CC[C@@H](OC(=O)C(C)(CO)CO)[C@H](OC)C2)CC(=O)[C@H](C)/C=C(\C)[C@@H](O)[C@@H](OC)C(=O)[C@H](C)C[C@H](C)/C=C/C=C/C=C/1C [CCI-779]

SMILES: COc1c(C)c2c(c(O)c1C/C=C(\C)CCC(=O)O)C(=O)OC2 [mycophenolic acid]
- effect on the anti-proliferative rapamycin dose response curve ([2]; mycophenolic acid zero to one thousand nanomolar added to cells treated with rapamycin): potentiates the anti-proliferative activity of rapamycin
- in vivo release from coating compared with rapamycin ([3]; EVA/BMA basecoat with 180 μg rapamycin and 180 μg mycophenolic acid, no, 100 or 200 μg BMA topcoat, porcine): elutes more completely over a shorter duration than the rapamycin

SMILES: COc1cc([C@@H]2c3cc4c(cc3[C@@H](O[C@@H]3O[C@@H]5CO[C@@H](C)O[C@H]5[C@H](O)[C@H]3O)[C@H]3COC(=O)[C@H]23)OCO4)cc(OC)c1O [etoposide]
- cytotoxicity in a cell viability assay (cell viability; concentrations up to ten micromolar): non-cytotoxic
- effect of addition to cells treated with rapamycin on percent inhibition ([4]; etoposide 255.7 to eight hundred nanomolar): increases the percent inhibition of rapamycin alone

- in vivo elution compared with rapamycin ([3]; EVA/BMA basecoat with rapamycin and cladribine, 200 μg BMA topcoat, Bx Velocity stents, Yorkshire pigs): elutes more rapidly than rapamycin
- in vivo elution from coating over time ([3]; PVDF/HFP (85/15) basecoat 1800 μg with thirty percent cladribine, 300 μg topcoat, Bx Velocity stents, Yorkshire pig, after the first day): levels off significantly
SMILES: Nc1nc(Cl)nc2c1ncn2[C@H]1C[C@H](O)[C@@H](CO)O1 [cladribine, 2-chlorodeoxyadenosine]
- effect of addition to cells treated with rapamycin on percent inhibition ([2]; cladribine 56.25 to 900 nanomolar): increases the percent inhibition of rapamycin alone
- inhibition of human coronary artery smooth muscle cell proliferation ([2]; non-synchronized cells, two percent fetal bovine serum): completely inhibits
- potency as inhibitor of smooth muscle cells relative to endothelial cells [5]: approximately twice

SMILES: CC(/C=C/C(=O)NO)=C\[C@@H](C)C(=O)c1ccc(N(C)C)cc1 [trichostatin A]
- anti-proliferative IC50 (tumor cell lines): low nM range
- IC50 ([6]; human coronary artery smooth muscle cells, read-out: anti-proliferative IC50): ~6 nM
- inhibition of human coronary artery smooth muscle cell proliferation ([6]; in vitro cell culture): completely inhibit

SMILES: COc1cc2c(cc1O)CC[C@@H]1[C@@H]2CC[C@]2(C)[C@@H](O)CC[C@@H]12 [Panzem®, 2-methoxyestradiol]
- human coronary artery smooth muscle cell survival (MTS assay) [7]: do not reduce
- effect of addition to cells treated with rapamycin on percent of inhibition ([4]; Panzem 0.813 to 100 micromolar): increases the percent of inhibition of rapamycin alone
- inhibition of human coronary artery smooth muscle cell proliferation in vitro ([4]; Panzem alone, synchronized cells): extremely effective inhibitor

SMILES: CC[C@@]1(O)C(=O)OCc2c1cc1n(c2=O)Cc2cc3c(CN(C)C)c(O)ccc3nc2-1 [topotecan]
- cytotoxicity in a separate cell viability assay (cell viability; concentrations up to one micromolar): non-cytotoxic
- effect of addition to cells treated with rapamycin on percent inhibition ([4]; topotecan 18.8 to 300 nanomolar): increases the percent inhibition of rapamycin alone

SMILES: CO[C@H]1C[C@@H]2CC[C@@H](C)[C@@](O)(O2)C(=O)C(=O)N2CCCC[C@H]2C(=O)O[C@H]([C@H](C)C[C@@H]2CC[C@@H](O)[C@H](OC)C2)CC(=O)[C@H](C)/C=C(\C)[C@@H](O)[C@@H](OC)C(=O)[C@H](C)C[C@H](C)/C=C/C=C/C=C/1C [rapamycin]
- in vivo release rate compared with mycophenolic acid ([3]; PVDF basecoat six hundred micrograms, PVDF topcoat two hundred micrograms, porcine): slower release rate than that of mycophenolic acid

— US20060129225A1, “Device for the delivery of a cardioprotective agent to ischemic reperfused myocardium” (priority 2004, published 2006)
